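All cell lines were grown in 96-well plates and treated with compound for 48 hours. GI50 = concentration required for 50% inhibition of growth.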 The source made the active and inactive calls. Cut-off read from the data, not from the text of the source: active = GI50 up to about 1.1 µM and inactive = higher.
Assays:
Test in all cases: NCI-60 cell line screen, 48 h
[1] = system: 786-0
[2] = system: A498
[3] = system: A549
[4] = system: ACHN
[5] = system: BT-549
[6] = system: CAKI-1
[7] = system: CCRF-CEM
[8] = system: COLO 205
[9] = system: DU-145
[10] = system: EKVX
[11] = system: HCC 2998
[12] = system: HCT-116
[13] = system: HCT-15
[14] = system: HL-60
[15] = system: HOP-62
[16] = system: HOP-92
[17] = system: HT-29
[18] = system: Hs-578T
[19] = system: IGROV-1
[20] = system: K562
[21] = system: KM12
[22] = system: LOX IMVI
[23] = system: M14
[24] = system: MCF7
[25] = system: MDA-MB-231
[26] = system: MDA-MB-435
[27] = system: MDA-N
[28] = system: MOLT-4
[29] = system: Malme-3M
[30] = system: NCI-H226
[31] = system: NCI-H23
[32] = system: NCI-H460
[33] = system: NCI-H522
[34] = system: NCI/ADR-RES
[35] = system: OVCAR-3
[36] = system: OVCAR-4
[37] = system: OVCAR-5
[38] = system: OVCAR-8
[39] = system: PC-3
[40] = system: RPMI-8226
[41] = system: RXF 393
[42] = system: SF-268
[43] = system: SF-295
[44] = system: SF-539
[45] = system: SK-MEL-28
[46] = system: SK-MEL-2
[47] = system: SK-MEL-5
[48] = system: SK-OV-3
[49] = system: SN12C
[50] = system: SNB-19
[51] = system: SNB-75
[52] = system: SR
[53] = system: SW-620
[54] = system: T47D
[55] = system: TK-10
[56] = system: U-251
[57] = system: UACC-257
[58] = system: UACC-62
[59] = system: UO-31

Measured: GI50

COC(=O)C1=C(C(=O)OC)N(c2ccncc2)C(c2ccco2)=CC1c1ccccc1[N+](=O)[O-] (stereo unspecified)
1890 nM: [13]
inactive: [1] 1700 nM | [2] 5240 nM | [3] 10300 nM | [4] 2010 nM | [5] 6700 nM | [6] 14200 nM | [7] 2210 nM | [8] 4750 nM | [9] 5240 nM | [10] 6590 nM | [11] 2030 nM | [12] 1600 nM | [14] 2460 nM | [15] 15500 nM | [16] 14100 nM | [17] 1990 nM | [18] 5940 nM | [19] 1950 nM | [20] 1440 nM | [21] 1600 nM | [22] 1720 nM | [23] 4210 nM | [24] 1870 nM | [25] 11600 nM | [26] 6150 nM | [27] 2710 nM | [28] 2160 nM | [29] 4550 nM | [30] 4990 nM | [31] 13900 nM | [32] 6110 nM | [33] 2030 nM | [34] 12100 nM | [35] 5270 nM | [36] 5970 nM | [37] 14600 nM | [38] 8040 nM | [39] 11500 nM | [40] 1390 nM | [41] 4650 nM | [42] 4720 nM | [43] 6190 nM | [44] 1750 nM | [45] 6320 nM | [46] 18200 nM | [47] 2390 nM | [48] 16800 nM | [49] 4710 nM | [50] 7180 nM | [51] 5640 nM | [53] 6900 nM | [54] 3780 nM | [55] 2750 nM | [56] 3320 nM | [57] 2020 nM | [58] 9910 nM | [59] 3570 nM
active: [52] 750 nM

COc1cc(C2c3cc4c(cc3OC(NN)C2C)OCO4)cc(OC)c1OC (stereo unspecified)
406 nM: [13]
inactive: [3] 1580 nM | [4] 1780 nM | [5] 9120 nM | [6] 3360 nM | [9] 1940 nM | [10] 10200 nM | [16] 2040 nM | [19] 1460 nM | [25] 4090 nM | [36] 23600 nM | [38] 1930 nM | [42] 2500 nM | [45] 50800 nM | [48] 1380 nM | [54] 87300 nM | [55] 28300 nM | [59] 6850 nM
active: [1] 653 nM | [2] 257 nM | [7] 405 nM | [8] 575 nM | [11] 536 nM | [12] 473 nM | [14] 323 nM | [15] 462 nM | [17] 360 nM | [18] 234 nM | [20] 333 nM | [21] 466 nM | [22] 458 nM | [23] 483 nM | [24] 443 nM | [26] 157 nM | [27] 123 nM | [28] 406 nM | [29] 340 nM | [30] 979 nM | [31] 1110 nM | [32] 489 nM | [33] 869 nM | [34] 1060 nM | [35] 265 nM | [39] 556 nM | [40] 289 nM | [41] 593 nM | [43] 406 nM | [44] 247 nM | [46] 647 nM | [47] 478 nM | [49] 757 nM | [50] 813 nM | [51] 289 nM | [52] 287 nM | [53] 447 nM | [56] 403 nM | [58] 495 nM

Reference: ChEMBL document CHEMBL1201862, “PubChem BioAssay data set” (2004)
